In brackets after ≈: the same amount, converted by molar mass.
Legend:
N. gonorrhoeae WHO Z = assay: Liquid broth MIC in Fastidious broth; details: Neisseria gonorrhoeae, read-out: Minimum Inhibitory Concentration (MIC), N. gonorrhoeae WHO Z
[1] = target: T1, PBP3 from Escherichia coli (K-12) (Escherichia coli, UniProt P0AD68); assay: Bocillin-FL fluorescence polarization competition binding, E. coli PBP3
T1 construct: made in house
Outline: (§1)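 Purified PBP was preincubated with inhibitor (E. coli PBP3 1.5 μM, 30 min; P. aeruginosa PBP3 0.75 μM, A. baumannii PBP3 0.2 μM and PBP1a 1 μM, 15 min), then Bocillin-FL (0.1 μM; 0.05 μM for PBP1a) added and FP read up to 60 min. EC50 = 50% loss of bound probe.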

A. baumannii ATCC 19606 = assay: microbe, parasite or virus in culture; format: cell-based; details: Acinetobacter baumannii, ATCC19606, read-out: MIC, A. baumannii ATCC 19606
A. baumannii CDC-0033 = assay: microbe, parasite or virus in culture; format: cell-based; details: Acinetobacter baumannii, CDC0033, read-out: MIC, A. baumannii CDC-0033
N. gonorrhoeae WHO K = assay: Liquid broth MIC in Fastidious broth; details: Neisseria gonorrhoeae, read-out: Minimum Inhibitory Concentration (MIC), N. gonorrhoeae WHO K
[2] = test system: P. aeruginosa (ΔmexAB-oprM); assay: Broth microdilution MIC in iron-depleted CAMHB (IDM); format: cell-based; details: Pseudomonas aeruginosa; iron-depleted CAMHB (IDM); […]; read-out: Minimum inhibitory concentration, P. aeruginosa ΔmexAB-oprM
[3] = target: T2, PBP1a from Acinetobacter baumannii (ATCC 19606) (Acinetobacter baumannii, UniProt A0ABX6CK30); assay: Bocillin-FL fluorescence polarization competition binding, A. baumannii PBP1a; details: fluorescence polarization competition binding assay using Bocillin-FL; read-out: A. baumannii PBP1a Potency
T2 sequence (A0ABX6CK30 1-851): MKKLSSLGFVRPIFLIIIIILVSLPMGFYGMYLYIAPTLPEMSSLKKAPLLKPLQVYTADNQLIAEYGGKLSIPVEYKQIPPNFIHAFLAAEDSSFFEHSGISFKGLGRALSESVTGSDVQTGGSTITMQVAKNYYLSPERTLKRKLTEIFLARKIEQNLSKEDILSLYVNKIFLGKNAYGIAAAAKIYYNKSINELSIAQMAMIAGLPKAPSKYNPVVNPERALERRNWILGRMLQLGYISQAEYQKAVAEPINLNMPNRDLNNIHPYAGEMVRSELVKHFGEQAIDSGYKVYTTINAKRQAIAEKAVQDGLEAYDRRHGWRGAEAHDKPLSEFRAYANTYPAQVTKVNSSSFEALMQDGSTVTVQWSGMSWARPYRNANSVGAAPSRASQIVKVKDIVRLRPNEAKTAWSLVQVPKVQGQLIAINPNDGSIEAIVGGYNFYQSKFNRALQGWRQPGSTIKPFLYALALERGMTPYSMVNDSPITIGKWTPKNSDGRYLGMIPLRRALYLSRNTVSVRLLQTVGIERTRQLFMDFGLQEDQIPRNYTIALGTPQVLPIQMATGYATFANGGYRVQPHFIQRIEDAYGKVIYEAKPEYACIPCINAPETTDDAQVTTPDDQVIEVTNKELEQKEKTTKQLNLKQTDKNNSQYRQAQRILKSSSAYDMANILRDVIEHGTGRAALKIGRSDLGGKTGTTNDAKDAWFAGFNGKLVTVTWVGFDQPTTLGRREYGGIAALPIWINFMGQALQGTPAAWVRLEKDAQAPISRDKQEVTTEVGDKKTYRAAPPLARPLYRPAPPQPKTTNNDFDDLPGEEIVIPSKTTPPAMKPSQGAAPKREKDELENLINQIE
Outline: as §1

A. baumannii ATCC 17978 = assay: microbe, parasite or virus in culture; format: cell-based; details: Acinetobacter baumannii, ATCC17978, read-out: MIC, A. baumannii ATCC 17978

T1 sequence (P0AD68 1-577): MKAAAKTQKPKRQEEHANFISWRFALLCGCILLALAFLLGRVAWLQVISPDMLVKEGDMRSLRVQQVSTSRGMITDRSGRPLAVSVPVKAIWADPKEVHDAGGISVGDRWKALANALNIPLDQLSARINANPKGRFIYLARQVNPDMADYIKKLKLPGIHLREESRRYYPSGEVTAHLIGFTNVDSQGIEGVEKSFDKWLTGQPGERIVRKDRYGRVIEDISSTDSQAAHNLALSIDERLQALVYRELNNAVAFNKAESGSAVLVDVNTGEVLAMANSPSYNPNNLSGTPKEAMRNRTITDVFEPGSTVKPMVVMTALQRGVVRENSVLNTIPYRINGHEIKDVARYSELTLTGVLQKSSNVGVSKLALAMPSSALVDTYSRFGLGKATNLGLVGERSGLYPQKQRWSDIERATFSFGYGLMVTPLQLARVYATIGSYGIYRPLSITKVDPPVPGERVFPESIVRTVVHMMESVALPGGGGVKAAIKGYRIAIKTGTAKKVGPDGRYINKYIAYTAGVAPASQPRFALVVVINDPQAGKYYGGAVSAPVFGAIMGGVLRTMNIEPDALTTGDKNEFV

| SMILES | MIC (N. gonorrhoeae WHO Z) [µg/mL] | EC50 [1] [µM] | MIC (A. baumannii ATCC 19606) [µg/mL] | MIC (A. baumannii CDC-0033) [µg/mL] | MIC (N. gonorrhoeae WHO K) [µg/mL] | MIC [2] [µg/mL] | IC50 [3] [µM] | MIC (A. baumannii ATCC 17978) [µg/mL] |
| --- | --- | --- | --- | --- | --- | --- | --- | --- |
| O=C(CN1CCN(C(=O)NC(C(=O)N[C@H]2Cc3ccc(F)c(C(=O)O)c3OB2O)c2cc(F)c(O)c(O)c2Cl)C(=O)C1=O)Nc1ccccc1 (stereo partly drawn) [Example 232, (3R)-3-(2-(2-chloro-5-fluoro-3,4-dihydroxyphenyl)-2-(2,3-dioxo-4-(2-oxo-2-(phenylamino)ethyl)piperazine-1-carboxamido)acetamido)-7-fluoro-2-hydroxy-3,4-dihydro-2H-benzo[e][1,2]oxaborinine-8-carboxylic acid] | 16 to 32 (≈ 22.4 to 44.7 µM) | < 10 | 2 to 4 (≈ 2.79 to 5.59 µM) | 32 to 64 (≈ 44.7 to 89.4 µM) | > 64 | < 1 | > 250 | 2 to 4 (≈ 2.79 to 5.59 µM) |
| O=C(CN1CCN(C(=O)NC(C(=O)N[C@H]2Cc3ccc(F)c(C(=O)O)c3OB2O)c2cc(F)c(O)c(O)c2Cl)C(=O)C1=O)Nc1ccncc1 (stereo partly drawn) [Example 233, (3R)-3-(2-(2-chloro-5-fluoro-3,4-dihydroxyphenyl)-2-(2,3-dioxo-4-(2-oxo-2-(pyridin-4-ylamino)ethyl)piperazine-1-carboxamido)acetamido)-7-fluoro-2-hydroxy-3,4-dihydro-2H-benzo[e][1,2]oxaborinine-8-carboxylic acid] | 16 to 32 (≈ 22.3 to 44.6 µM) | < 10 | < 1 | 8 to 16 (≈ 11.2 to 22.3 µM) | 16 to 32 (≈ 22.3 to 44.6 µM) | < 1 | > 250 | < 1 |
| O=C(CN1CCN(C(=O)NC(C(=O)N[C@H]2Cc3ccc(F)c(C(=O)O)c3OB2O)c2cc(F)c(O)c(O)c2Cl)C(=O)C1=O)Nc1cccnc1 (stereo partly drawn) [Example 234, (3R)-3-(2-(2-chloro-5-fluoro-3,4-dihydroxyphenyl)-2-(2,3-dioxo-4-(2-oxo-2-(pyridin-3-ylamino)ethyl)piperazine-1-carboxamido)acetamido)-7-fluoro-2-hydroxy-3,4-dihydro-2H-benzo[e][1,2]oxaborinine-8-carboxylic acid] | 16 to 32 (≈ 22.3 to 44.6 µM) | < 10 | < 1 | 8 to 16 (≈ 11.2 to 22.3 µM) | 16 to 32 (≈ 22.3 to 44.6 µM) | < 1 | > 250 | < 1 |
| O=C(CN1CCN(C(=O)NC(C(=O)N[C@H]2Cc3ccc(F)c(C(=O)O)c3OB2O)c2cc(F)c(O)c(O)c2Cl)C(=O)C1=O)Nc1nccs1 (stereo partly drawn) [Example 235, (3R)-3-(2-(2-chloro-5-fluoro-3,4-dihydroxyphenyl)-2-(2,3-dioxo-4-(2-oxo-2-(thiazol-2-ylamino)ethyl)piperazine-1-carboxamido)acetamido)-7-fluoro-2-hydroxy-3,4-dihydro-2H-benzo[e][1,2]oxaborinine-8-carboxylic acid] | 16 to 32 (≈ 22.1 to 44.3 µM) | < 10 | < 1 | 8 to 16 (≈ 11.1 to 22.1 µM) | 16 to 32 (≈ 22.1 to 44.3 µM) | < 1 | > 250 | < 1 |
| O=C(CN1CCN(C(=O)NC(C(=O)N[C@H]2Cc3ccc(F)c(C(=O)O)c3OB2O)c2cc(F)c(O)c(O)c2Cl)C(=O)C1=O)NCc1cccc(O)c1 (stereo partly drawn) [Example 237, (3R)-3-(2-(2-chloro-5-fluoro-3,4-dihydroxyphenyl)-2-(4-(2-((3-hydroxybenzyl)amino)-2-oxoethyl)-2,3-dioxopiperazine-1-carboxamido)acetamido)-7-fluoro-2-hydroxy-3,4-dihydro-2H-benzo[e][1,2]oxaborinine-8-carboxylic acid] | 16 to 32 (≈ 21.5 to 42.9 µM) | < 10 | < 1 | 8 to 16 (≈ 10.7 to 21.5 µM) | > 64 | < 1 | > 250 | < 1 |
| O=C(CN1CCN(C(=O)NC(C(=O)N[C@H]2Cc3ccc(F)c(C(=O)O)c3OB2O)c2cc(F)c(O)c(O)c2Cl)C(=O)C1=O)NCc1ccccc1 (stereo partly drawn) [Example 238] | 16 to 32 (≈ 21.9 to 43.8 µM) | < 10 | < 1 | 8 to 16 (≈ 11 to 21.9 µM) | > 64 | < 1 | > 250 | < 1 |
